Measured values taken from patent publication US20250170156A1, “TOLL-LIKE RECEPTOR LIGANDS” (INIMMUNE CORPORATION, priority 2018, published 2025).

What was measured:
hTLR4 = biological target: T1, hTLR4 (Homo sapiens, UniProt O00206+Q9Y6Y9); test: HEK hTLR4 NF-κB driven SEAP reporter assay (hTLR4 activation); assay type: cell-based; conditions: 18 hours
T1 construct: expressed in transfected cells; host or cells: HEK cells expressing hTLR4 and an NF-κB driven SEAP reporter
Method: hTLR4 activation. HEK hTLR4-expressing cells were treated with 100 μM concentration of test compound followed by a 5-fold dilution series. HEK hTLR4-expressing cells also contained an NF-κB driven SEAP reporter and were stimulated with the indicated concentration (FIG. 1A-1C) of the test compound for 18 hours followed by assessment of the cellular supernatant for SEAP by a Quantikine SEAP assay (InvivoGen). The SEAP assay was used to look at secretion of the NF-κB driven alkaline-phosphatase reporter gene in response to TLR4 activation by the compounds and results are interpreted both in terms of potency of the compounds to induce SEAP activation (i.e. potency where a lower EC50 indicates higher potency) and efficacy for receptor activation (i.e. maximal SEAP induction).

primary hPBMCs [1] = test: Induction of RANTES from primary hPBMCs (ELISA); conditions: Homo sapiens
primary hPBMCs [2] = test: Induction of MIP-1β from primary hPBMCs (ELISA); conditions: Homo sapiens
mRAW264.7 cells = test: Induction of MIP-1β cytokine from mRAW264.7 cells (ELISA); assay type: cell-based; conditions: Mus musculus, 18 hours, read-out: mRaw MIP-1β EC50
Method: Induction of MIP-1β cytokine from mRAW264.7 cells. […] Treatments started at 20 μM concentration with a 5-fold serial dilution until 3.2768E-09 μM. Supernatants were harvested and analyzed for production of MIP-1β via ELISA (R& D Systems-cat #DY451).

[3] = Stability of aqueous formulations by reverse-phase-HPLC; assay type: physicochemical
Method: Formulation. The salted compound was accurately weighed into depyrogenated glass vials, and the required volume of aqueous vehicle added to attain the desired concentration. Vials were placed in a sonication bath (sonication bath temperature≤45° C.) to assist solubility and reduce particle size to achieve sterile filtration without significant loss of compound. Once the solution appeared homogeneous, the particle size was periodically monitored by dynamic light scattering until the solution turned clear and the particle size was <200 mn, or the particle size no longer reduced with continued sonication. The formulation was filtered through a 0.22p PVDF membrane filter into a depyrogenated glass vial and the resulting solution quantitated by RP-HPLC.
Aqueous formulations of compounds 1, 2, 3, 4, 5 and 6 were aliquoted into small depyrogenated vials for stability evaluation at temperatures of 2°-8° C., 25° C., and 40° C. This mirrors ICH stability temperature guidelines, but humidity was not controlled. A vial was pulled for each time point/temperature and analyzed by reverse-phase-HPLC (FIGS. 9-14) according to the following schedule starting from 2 weeks to up to 12 months.

[4] = system: influenza virus antigen A/Victoria/210/2009-H3N2; test: Vaccine adjuvant study, murine influenza virus vaccination model; assay type: in vivo, BALB/c mice; conditions: intramuscular, 0.1, 0.01 or 0.001 μg with 0.2 μg antigen, 14 days after single immunization, 2% glycine
Method: Vaccine adjuvant study. Compounds 2, 4, 5 and 7 were evaluated as vaccine adjuvant in a murine influenza virus vaccination model. 7-9 week old BALB/c mice (10 mice per group) were injected intramuscularly in a hind limb with the influenza virus antigen A/Victoria/210/2009-H3N2 (0.2 μg/mouse) with or without 0.1, 0.01 or 0.001 μg of compound 2, 4, 5 or 7 (formulated in 2% glycine). Fourteen days after a single immunization, animals were bled via the submandibular vein and serum was collected to assay for A/Victoria specific antibodies by ELISA assay (FIG. 7).

hMM6 cells = test: Induction of MIP-1β cytokine from hMM6 cells (ELISA); assay type: cell-based; conditions: Homo sapiens, 18 hours
Method: Induction of […] cytokine from hMM6 cells. The compounds were next tested in the established MM6 potency assay measuring MIP-1β cytokine production as an output measure of compound potency. Human monocytic cell line, Mono-Mac-6 (hMM6) was obtained from DSMZ (Brunswick, Germany). […] Treatments started at a 100 µM concentration proceeded with a 16-point, 5-fold dilution series. Supernatants were harvested and analyzed for production of MIP-1β via ELISA (R&D systems, catalog #DY271).

T1 sequence (O00206 24-839): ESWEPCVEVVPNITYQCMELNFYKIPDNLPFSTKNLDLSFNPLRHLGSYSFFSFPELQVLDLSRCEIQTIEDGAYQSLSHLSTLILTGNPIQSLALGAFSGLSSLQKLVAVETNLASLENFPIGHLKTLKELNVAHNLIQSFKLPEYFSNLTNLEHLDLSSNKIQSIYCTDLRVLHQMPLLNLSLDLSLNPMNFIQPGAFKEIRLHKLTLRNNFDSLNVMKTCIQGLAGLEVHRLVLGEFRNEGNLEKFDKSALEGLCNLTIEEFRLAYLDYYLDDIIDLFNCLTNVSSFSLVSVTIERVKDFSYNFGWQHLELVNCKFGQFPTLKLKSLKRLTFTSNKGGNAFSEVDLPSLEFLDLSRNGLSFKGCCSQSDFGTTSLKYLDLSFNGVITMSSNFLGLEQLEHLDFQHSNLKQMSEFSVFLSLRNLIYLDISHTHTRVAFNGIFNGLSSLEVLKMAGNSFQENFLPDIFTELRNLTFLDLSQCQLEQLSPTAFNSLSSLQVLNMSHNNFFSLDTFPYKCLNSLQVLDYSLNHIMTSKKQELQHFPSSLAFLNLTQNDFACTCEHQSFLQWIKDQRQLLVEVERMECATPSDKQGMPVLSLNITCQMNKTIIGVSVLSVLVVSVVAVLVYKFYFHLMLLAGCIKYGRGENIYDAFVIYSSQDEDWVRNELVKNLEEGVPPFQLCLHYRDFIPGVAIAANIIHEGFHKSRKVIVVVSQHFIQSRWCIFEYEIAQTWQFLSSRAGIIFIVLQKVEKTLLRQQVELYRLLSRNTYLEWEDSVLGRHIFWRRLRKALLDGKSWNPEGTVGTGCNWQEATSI
T1 sequence (Q9Y6Y9 17-160 limits assumed): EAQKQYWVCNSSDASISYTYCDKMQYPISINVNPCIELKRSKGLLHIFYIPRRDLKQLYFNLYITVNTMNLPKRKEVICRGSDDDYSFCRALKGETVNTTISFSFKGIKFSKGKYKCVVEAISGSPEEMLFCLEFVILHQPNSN

For `CCCCCCCCCCC[C@H](CC(=O)NCCO[C@@H]1OC(CO)[C@@H](OS(=O)(=O)O)[C@H](NC(=O)C[C@@H](CCCCCCCCCCC)OC(=O)CCCCCCCCC)C1NC(=O)C[C@@H](CCCCCCCCCCC)OC(=O)CCCCCCCCC)OC(=O)CCCCCCCCC` (stereo partly drawn) [Compound 2, 2-[(R)-3-decanoyloxytetradecanoylamino]ethyl 2,3-di-[(R)-3-decanoyloxytetradecanoylamino]-2,3-dideoxy-4-O-sulfoxy-β-D-allopyranoside], which EC50 (hTLR4; Table 1a) is on record?
The EC50 was 64 nM.

What about the EC50 (hTLR4; Table 1b) of the same compound?
Its EC50 is 41 nM.

What about the EC50 (primary hPBMCs [1]; read-out: hPBMCs EC50 RANTES, Table 3a, Average of Donors 10, 5, 2) of the same compound?
The EC50 was 0.243 nM.

And the EC50 (primary hPBMCs [1]; read-out: hPBMCs EC50 RANTES, Table 3a, Donor 2)?
The EC50 was 0.38 nM.

What about the EC50 (primary hPBMCs [1]; read-out: hPBMCs EC50 RANTES, Table 3a, Donor 5) of the same compound?
The EC50 was 0.285 nM.

What about the EC50 (primary hPBMCs [1]; read-out: hPBMCs EC50 RANTES, Table 3a, Donor 10) of the same compound?
Its EC50 is 0.0642 nM.

And the EC50 (primary hPBMCs [1]; read-out: hPBMCs EC50 RANTES, Table 4b, Average of Donors 22, 5)?
The EC50 was 0.423 nM.

What about the EC50 (primary hPBMCs [1]; read-out: hPBMCs EC50 RANTES, Table 4b, Donor 5) of the same compound?
The EC50 was 0.238 nM.

And the EC50 (primary hPBMCs [1]; read-out: hPBMCs EC50 RANTES, Table 4b, Donor 22)?
Its EC50 is 0.609 nM.

And the EC50 (primary hPBMCs [2]; read-out: hPBMCs EC50 MIP-1β, Table 3a, Average of Donors 10, 5, 2)?
The EC50 was 0.0963 nM.

And the EC50 (primary hPBMCs [2]; read-out: hPBMCs EC50 MIP-1β, Table 3a, Donor 2)?
The EC50 was 0.0755 nM.

And the EC50 (primary hPBMCs [2]; read-out: hPBMCs EC50 MIP-1β, Table 3a, Donor 5)?
The EC50 was 0.166 nM.

And the EC50 (primary hPBMCs [2]; read-out: hPBMCs EC50 MIP-1β, Table 3a, Donor 10)?
Its EC50 is 0.0475 nM.

And the EC50 (primary hPBMCs [2]; read-out: hPBMCs EC50 MIP-1β, Table 4b, Average of Donors 22, 5)?
Its EC50 is 0.453 nM.

And the EC50 (primary hPBMCs [2]; read-out: hPBMCs EC50 MIP-1β, Table 4b, Donor 5)?
Its EC50 is 0.119 nM.

And the EC50 (primary hPBMCs [2]; read-out: hPBMCs EC50 MIP-1β, Table 4b, Donor 22)?
The EC50 was 0.786 nM.

And the EC50 (mRAW264.7 cells)?
Its EC50 is 0.0176 nM.

And the “time with no degradation” value ([3]; 25° C., formulated in 2% glycine (FIG. 10A))?
The value was ≥ 12 months.

And the degradation ([3]; after 12 months at 40° C., formulated in 2% glycerol (FIG. 10B))?
The degradation was “less than 10%”.

And the “adjuvant effect on flu-specific IgG2a antibody titers compared to antigen alone” value [4]?
The value was “dose dependent adjuvant effect”.

What about the EC50 (hMM6 cells) of the same compound?
Its EC50 is 5.89 nM.
